SMILES strings stand for the structures. Where two headings read alike, the source gives them in different places. Bounds are passed on as bounds.

This note sets out measurements from paper PMC9578445, “Association of respiratory failure with inhibition of NaV1.6 in the phrenic nerve” (Channels, 2022).

The target of data set [1] is T1, Rat NaV1.6 (Rattus norvegicus, UniProt O88420).
T1 construct: expressed in transfected cells; host or cells: HEK cells
Briefly: PatchXpress automated patch clamp, hyperpolarized-state protocol. It is filed as cell-based. As to conditions: for IC50: HEK cells, hyperpolarized protocol. The method, then:
(§1) Sodium currents were recorded from recombinant Human Embryonic Kidney 293 cell lines stably overexpressing the respective sodium channel type (NaV1.2, 1.5, 1.4, 1.6, 1.7). Recording solutions were comprised of the following (in mM): Internal solution: 30 CsCl, 5 HEPES, 10 EGTA, 120 CsF, 5 NaF, 2 MgCl2, pH = 7.3 with CsOH; External solution 1: 40 NaCl, 120 NMDG, 1 KCl, 0.5 MgCl2, 5 HEPES, 2.7 CaCl2, pH to 7.3 with NaOH, used for NaV1.5 recordings; External solution 2: 150 NaCl, 5 KCl, 2 CaCl2, 1 MgCl2, 10 HEPES, 12 Dextrose, pH 7.3 with NaOH, used for NaV1.7, 1.6, 1.4, and 1.2 recordings.
(§2) Whole-cell currents were recorded from cells stably expressing NaV channels using the PatchXpress 7000A automated patch clamp platform (Molecular Devices, LLC; Sunnyvale, CA). A portable air-conditioning unit was installed on the PatchXpress instruments to maintain the temperature of the headstage at 21°C. Cells were voltage clamped at −60 mV for cell detection and sealing. At the start of each recording, a voltage curve and an inactivation curve was run for each cell to determine the voltage at which 50% of the channels reside in the inactivated state (V0.5 inact). The voltage curve was used to determine if the cell was adequately clamped; cells with currents larger than 10nA or with space clamp issues were not used further.
(§3) NaV1.7, NaV1.6, NaV1.4: Compound potency was measured in a hyperpolarized-state protocol where the holding potential for each cell was set to V0.5inact – 20 mV. A pulse train consisting of 7 consecutive double pulses, 8 second hypepolarizing prepulse to −120 mV followed by a test pulse to −10 mV was applied at a frequency of 0.1 Hz. First, vehicle (0.3% DMSO) was added to establish a baseline measurement. Once baseline was established, test compounds were added. Cells were exposed to compound for 5 minutes at 20 mV negative to V0.5inact then exposed to the same hyperpolarized voltage protocol. (no pulsing during compound incubation). A washout was performed to measure recovery of the sodium currents from inhibition.
(§4) Recordings were included for analysis when current amplitude reached steady-state in vehicle, compound inhibition was concentration-dependent and currents recovered during wash-out periods. Raw data from PatchXpress experiments were retrieved from the database and analyzed using the DataXpress 2 software (Molecular Devices).
(§5) At least 3 concentrations (3–9 replicates per concentration) were tested and at least one concentration had to cause 20–80% current inhibition.
(The patch-clamp technique gives a direct electrical read-out from membranes.)

In data set [2] the target is T2, Human NaV1.7 (Homo sapiens, UniProt Q15858).
T2 construct: expressed in transfected cells
Described as above. It is filed as cell-based. Conditions: HEK 293 cells. As for the experimental part:
as §1, §2, §3, §4, §5

The target in data set [3] is T3, Human NaV1.5 (Homo sapiens, UniProt Q14524).
T3 construct: expressed in transfected cells
Briefly: PatchXpress automated patch clamp, depolarized-state protocol. It is filed as cell-based. Conditions: HEK 293 cells. As for the experimental part: as §1, §2
NaV1.5: Compound potency was measured in a depolarized-state protocol where the holding potential for each cell was set to V0.5inact – 20 mV. The pulse protocol consisted of an 8 sec prepulse to V0.5inact + 7 mV, followed by a 2 ms hyperpolarization to −120 mV and a 10 ms test pulse to −10 mV. First, vehicle (0.3% DMSO) was added to establish a baseline measurement. Once baseline was established, a test compound was added. Cells were exposed to compound for 5 minutes at V0.5inact – 20 mV. Compound washout was performed to measure the recovery of the sodium currents from inhibition.
as §4, §5

Data set [4] is described as follows: Plasma exposure in rat CV/R assay. Format: in vivo. As to conditions: for concentration at 15 min / concentration at 30 min: CD, plasma, iv; for concentration at 15 min / concentration at 30 min / Total [plasma] / Unbound [plasma]: rat, IV infusion; for unbound plasma concentration just prior to death: blood samples taken just prior to death; for Total [plasma] / Unbound [plasma]: just prior to death. From the text: For in vivo CVR and phrenic nerve activity studies, all raw signals were amplified via general purposed biological amplifier (filter settings DC – 3-5 KhZ) then digitized, calibrated and collected at a minimum of 500 Hz (1000 Hz for ECG and 2000 Hz for cardiac electrograms, and 10 KHz for phrenic nerve activity) using Notocord-HEM data acquisition and analysis software. The raw signal was filtered following acquisition with a bandpass filter set to 200–800 Hz). Vehicle (100% dimethylformamdide, DMF) or compound formulated in the vehicle was administered as a 30-minute IV infusion at 0.0167 μL/g body weight/min. […] Exposure in rats was determined in separate pharmacokinetics experiments where compounds were administered via IV dosing.

Data set [5] has as its target Nav1.6 (Homo sapiens, UniProt Q9UQD0). Briefly: PatchXpress automated patch clamp, hyperpolarized-state protocol. As to conditions: for IC50: HEK 293 cells, hyperpolarized protocol. It is filed as cell-based. Further details: expressed in transfected cells. As for the experimental part: as §1, §2, §3, §4, §5
Data set [6] addresses T4, Human NaV1.4 (Homo sapiens, UniProt P35499).
T4 construct: expressed in transfected cells
Described as above. Conditions: HEK 293 cells. Format: cell-based. As for the experimental part:
as §1, §2, §3, §4, §5

Data set [7] has as its target Pgp (Homo sapiens, UniProt P08183). Briefly: Permeability BA/AB ratio (Pgp transport). Format: in vitro ADME. As to conditions: not told.
The mark [8] stands for this setting: 1 mg/kg, 1 mg/kg, read-out: Total [plasma].
The mark [9] stands for this setting: 1 mg/kg, 1 mg/kg, read-out: Unbound [plasma].
The mark [10] stands for this setting: 14 mg/kg, 14 mg/kg, read-out: Total [plasma].
Where [11] appears, read: 14 mg/kg, 14 mg/kg, read-out: Unbound [plasma].
Where [12] appears, read: male, 7 mg/kg, 7 mg/kg, read-out: Total [plasma].
Setting [13] is: male, 7 mg/kg, 7 mg/kg, read-out: Unbound [plasma].
The mark [14] stands for this setting: male, 30 mg/kg, 30 mg/kg, read-out: Total [plasma].
Setting [15] is: male, 30 mg/kg, 30 mg/kg, read-out: Unbound [plasma].
The mark [16] stands for this setting: 10 mg/kg, 10 mg/kg, read-out: Total [plasma].
Where [17] appears, read: 10 mg/kg, 10 mg/kg, read-out: Unbound [plasma].

T2 sequence (Q15858 whole entry): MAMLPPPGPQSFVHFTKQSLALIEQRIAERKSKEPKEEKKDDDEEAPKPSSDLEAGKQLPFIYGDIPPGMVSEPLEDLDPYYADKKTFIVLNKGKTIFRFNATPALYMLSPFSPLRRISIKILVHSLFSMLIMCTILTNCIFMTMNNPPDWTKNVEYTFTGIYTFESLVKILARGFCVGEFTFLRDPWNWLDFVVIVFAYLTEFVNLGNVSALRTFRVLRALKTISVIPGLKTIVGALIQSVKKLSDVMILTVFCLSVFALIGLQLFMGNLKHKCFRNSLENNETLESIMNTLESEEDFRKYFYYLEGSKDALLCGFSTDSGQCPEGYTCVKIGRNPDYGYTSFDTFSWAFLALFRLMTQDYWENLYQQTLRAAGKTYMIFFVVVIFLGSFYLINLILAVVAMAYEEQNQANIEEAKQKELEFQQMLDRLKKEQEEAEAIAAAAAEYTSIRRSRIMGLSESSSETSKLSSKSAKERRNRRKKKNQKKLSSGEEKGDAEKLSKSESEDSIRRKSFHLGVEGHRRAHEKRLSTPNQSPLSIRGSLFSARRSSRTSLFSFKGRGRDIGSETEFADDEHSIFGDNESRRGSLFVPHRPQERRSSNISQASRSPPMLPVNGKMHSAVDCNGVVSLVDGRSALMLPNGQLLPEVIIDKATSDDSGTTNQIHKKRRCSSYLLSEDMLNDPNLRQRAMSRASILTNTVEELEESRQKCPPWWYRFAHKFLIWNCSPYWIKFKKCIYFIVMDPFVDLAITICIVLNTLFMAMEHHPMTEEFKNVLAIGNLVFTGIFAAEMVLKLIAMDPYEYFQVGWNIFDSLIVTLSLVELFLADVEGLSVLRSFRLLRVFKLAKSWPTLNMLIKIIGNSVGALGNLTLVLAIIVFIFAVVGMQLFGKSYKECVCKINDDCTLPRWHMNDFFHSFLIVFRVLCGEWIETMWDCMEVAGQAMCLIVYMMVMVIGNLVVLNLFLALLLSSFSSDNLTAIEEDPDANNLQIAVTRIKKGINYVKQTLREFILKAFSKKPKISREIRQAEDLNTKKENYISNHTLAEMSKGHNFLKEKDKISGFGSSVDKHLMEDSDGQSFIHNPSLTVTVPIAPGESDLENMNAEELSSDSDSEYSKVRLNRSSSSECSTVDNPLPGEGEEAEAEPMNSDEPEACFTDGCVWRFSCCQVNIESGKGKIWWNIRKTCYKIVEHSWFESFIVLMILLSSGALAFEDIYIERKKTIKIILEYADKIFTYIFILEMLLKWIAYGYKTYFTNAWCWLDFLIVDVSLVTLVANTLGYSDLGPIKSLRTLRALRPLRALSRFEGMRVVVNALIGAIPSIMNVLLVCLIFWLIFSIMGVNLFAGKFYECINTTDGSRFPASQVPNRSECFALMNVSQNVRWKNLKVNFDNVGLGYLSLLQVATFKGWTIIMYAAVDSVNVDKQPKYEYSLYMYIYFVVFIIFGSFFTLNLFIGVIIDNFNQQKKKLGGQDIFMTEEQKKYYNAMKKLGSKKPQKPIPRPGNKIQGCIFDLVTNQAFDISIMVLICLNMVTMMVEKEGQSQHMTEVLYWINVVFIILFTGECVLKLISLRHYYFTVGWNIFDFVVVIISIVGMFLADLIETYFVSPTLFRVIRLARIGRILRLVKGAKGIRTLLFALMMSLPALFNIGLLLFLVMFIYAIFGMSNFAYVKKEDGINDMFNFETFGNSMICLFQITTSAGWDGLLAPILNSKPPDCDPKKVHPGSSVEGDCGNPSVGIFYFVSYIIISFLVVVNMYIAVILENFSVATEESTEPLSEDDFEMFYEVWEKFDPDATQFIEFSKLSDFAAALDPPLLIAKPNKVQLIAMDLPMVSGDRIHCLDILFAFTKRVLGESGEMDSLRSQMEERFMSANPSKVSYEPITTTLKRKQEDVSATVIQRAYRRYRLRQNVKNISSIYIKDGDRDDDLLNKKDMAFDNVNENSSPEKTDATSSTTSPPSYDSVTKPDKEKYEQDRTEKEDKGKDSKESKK
T1 sequence (O88420 whole entry): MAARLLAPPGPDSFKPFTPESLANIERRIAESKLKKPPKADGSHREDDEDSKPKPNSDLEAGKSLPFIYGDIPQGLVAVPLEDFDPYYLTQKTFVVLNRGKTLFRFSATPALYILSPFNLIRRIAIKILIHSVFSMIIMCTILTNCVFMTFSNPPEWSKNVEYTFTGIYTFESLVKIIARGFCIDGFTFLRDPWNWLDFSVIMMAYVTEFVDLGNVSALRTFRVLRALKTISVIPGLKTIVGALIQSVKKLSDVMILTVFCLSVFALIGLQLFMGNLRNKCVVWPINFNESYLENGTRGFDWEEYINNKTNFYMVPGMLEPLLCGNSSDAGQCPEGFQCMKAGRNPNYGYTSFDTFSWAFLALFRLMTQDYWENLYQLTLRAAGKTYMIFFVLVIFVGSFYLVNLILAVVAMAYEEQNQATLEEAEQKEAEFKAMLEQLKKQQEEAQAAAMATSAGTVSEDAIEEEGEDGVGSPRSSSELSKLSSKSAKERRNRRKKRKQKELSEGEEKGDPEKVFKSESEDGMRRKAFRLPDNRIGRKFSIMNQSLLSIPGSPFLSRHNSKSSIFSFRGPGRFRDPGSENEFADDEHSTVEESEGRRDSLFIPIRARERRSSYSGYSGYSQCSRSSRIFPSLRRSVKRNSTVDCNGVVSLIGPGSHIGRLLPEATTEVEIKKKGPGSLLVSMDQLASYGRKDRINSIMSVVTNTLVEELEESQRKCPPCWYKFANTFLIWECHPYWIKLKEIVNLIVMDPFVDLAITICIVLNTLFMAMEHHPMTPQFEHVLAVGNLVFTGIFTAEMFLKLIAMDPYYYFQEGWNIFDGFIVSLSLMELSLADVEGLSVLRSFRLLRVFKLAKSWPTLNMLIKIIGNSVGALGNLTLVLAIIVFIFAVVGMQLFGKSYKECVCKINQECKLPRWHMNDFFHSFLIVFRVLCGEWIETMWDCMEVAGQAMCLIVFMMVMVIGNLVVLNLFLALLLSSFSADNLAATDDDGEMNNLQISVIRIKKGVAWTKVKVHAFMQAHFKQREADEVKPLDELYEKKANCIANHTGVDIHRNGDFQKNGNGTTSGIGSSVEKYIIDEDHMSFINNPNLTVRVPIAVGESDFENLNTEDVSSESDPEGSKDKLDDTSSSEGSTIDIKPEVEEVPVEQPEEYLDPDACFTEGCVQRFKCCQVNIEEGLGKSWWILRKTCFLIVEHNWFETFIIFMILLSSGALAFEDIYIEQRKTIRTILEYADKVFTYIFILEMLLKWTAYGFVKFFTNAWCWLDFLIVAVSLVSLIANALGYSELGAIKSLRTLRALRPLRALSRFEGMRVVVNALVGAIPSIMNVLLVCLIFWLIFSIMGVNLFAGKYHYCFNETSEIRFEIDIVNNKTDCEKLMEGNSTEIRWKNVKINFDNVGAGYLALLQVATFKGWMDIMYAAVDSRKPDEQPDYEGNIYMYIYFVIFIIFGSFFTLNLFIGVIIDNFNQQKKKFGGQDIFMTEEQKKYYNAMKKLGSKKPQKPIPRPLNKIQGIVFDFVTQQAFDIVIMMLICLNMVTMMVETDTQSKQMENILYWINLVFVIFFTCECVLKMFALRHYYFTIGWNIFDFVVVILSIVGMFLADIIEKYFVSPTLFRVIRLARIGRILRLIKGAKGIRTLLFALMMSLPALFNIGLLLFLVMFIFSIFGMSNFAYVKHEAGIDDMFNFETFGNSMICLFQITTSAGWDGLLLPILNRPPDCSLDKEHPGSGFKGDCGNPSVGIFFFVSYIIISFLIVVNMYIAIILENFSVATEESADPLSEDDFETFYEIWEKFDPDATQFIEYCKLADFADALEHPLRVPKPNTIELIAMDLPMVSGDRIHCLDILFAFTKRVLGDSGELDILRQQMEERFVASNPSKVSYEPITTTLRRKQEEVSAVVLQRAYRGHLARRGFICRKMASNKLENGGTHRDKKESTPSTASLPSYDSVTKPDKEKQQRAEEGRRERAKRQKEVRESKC

Turning to `COc1ccc(CCC(c2cccc3c2CNCC3)n2c(=O)oc3cc(S(=O)(=O)Nc4ncns4)c(F)cc32)cc1` (centres unmarked) [SSCI-6], the IC50 in data set [1] is over 0.041 µM; in data set [2], 0.29 µM; in data set [3], over 30 µM; in data set [5] it was 0.023 µM. Also, in data set [1] (at 41 nM), testing at 0.041 µM gave an inhibition of 45%. The concentration at 15 min in data set [4] (setting [8]) was 1.4 ± 0.2 µM; in data set [4] (setting [9]), 0.025 ± 0.004 µM. For the same compound, the concentration at 30 min in data set [4] (setting [8]) stood at 1.5 µM; in data set [4] (setting [9]), 0.027 µM. Further, in data set [4] (rat CV/R assay), the “unbound plasma concentration just prior to death” value came to 0.05 µM. The “Total [plasma]” value in data set [4] (1 mg/kg, 20–23 min) is 2.8a μM. Besides, the “Unbound [plasma]” value in data set [4] (1 mg/kg, 20–23 min) stood at 0.050a μM. The “fold more potent at inhibiting NaV1.6 channels” value in data set [5] is recorded as “approximately 10 fold”.

Regarding `O=S(=O)(Nc1nccs1)c1cc(Cl)c(NCCCCNC[C@H]2CCCN2)cc1F` [SSCI-1], the IC50 was 19 µM in data set [1]; over 30 µM in data set [6]; 0.065 µM in data set [2]; over 30 µM in data set [3]; over 30 µM in data set [5]. The efflux ratio in data set [7] was about 1.1. The concentration at 15 min was 88.3 ± 5.6 µM in data set [4] (setting [10]); 5.9 ± 0.4 µM in data set [4] (setting [11]); 54.4 ± 3.2 µM in data set [4] (setting [12]); 3.6 ± 0.2 µM in data set [4] (setting [13]); 230 ± 12 µM in data set [4] (setting [14]); 15.4 ± 0.8 µM in data set [4] (setting [15]). Besides, the concentration at 30 min in data set [4] (setting [10]) was 104 ± 5.2 µM; in data set [4] (setting [11]), 7 ± 0.3 µM; in data set [4] (setting [12]), 76.7 ± 4.1 µM; in data set [4] (setting [13]) it was 5.1 ± 0.3 µM; in data set [4] (setting [14]), 252 ± 4 µM; in data set [4] (setting [15]), 16.9 ± 0.3 µM. Further, the unbound plasma exposure in data set [4] (rat CV/R assay, no mortality) turned out to be 16.9 µM.

For `N#Cc1cc(S(=O)(=O)Nc2cscn2)ccc1Oc1ccc(Cl)cc1-c1ccnn1C1CNC1` [SSCI-5], the IC50 in data set [1] was 7.4 µM; in data set [6] it was over 30 µM; in data set [2] it was 2.1 µM; in data set [3] it was over 30 µM; in data set [5], 4.61 µM. The efflux ratio in data set [7] is under 999. For the same compound, the concentration at 15 min came out at 38.2 ± 1.6 µM in data set [4] (setting [14]); 4.9 ± 0.2 µM in data set [4] (setting [15]); 67.7 µM in data set [4] (male, 60 mg/kg, 60 mg/kg, read-out: Total [plasma]); 8.7 µM in data set [4] (male, 60 mg/kg, 60 mg/kg, read-out: Unbound [plasma]). Further, the concentration at 30 min worked out at 42.1 ± 1.2 µM in data set [4] (setting [14]) and 5.4 ± 0.2 µM in data set [4] (setting [15]). For the same compound, the “unbound plasma concentration just prior to death” value in data set [4] (rat CV/R assay) is 19.7 µM. In data set [4] (60 mg/kg, 21–23 min), the “Total [plasma]” value stood at 154a μM. Also, in data set [4] (60 mg/kg, 21–23 min), the “Unbound [plasma]” value is on record as 19.7a μM.

For the compound `C[C@H](c1cccc2c1CNCC2)n1c(=O)oc2cc(S(=O)(=O)Nc3ncns3)ccc21` [SSCI-3], the IC50 in data set [1] was 8.1 µM; in data set [6], over 30 µM; in data set [2] it was 1 µM; in data set [3], over 30 µM; in data set [5], 1.11 µM. Further, in data set [7], the efflux ratio was about 1.03. In addition, the concentration at 15 min stood at 32.1 ± 2 µM in data set [4] (setting [16]), 3.8 ± 0.2 µM in data set [4] (setting [17]), 108 ± 4.1 µM in data set [4] (setting [14]) and 12.7 ± 0.5 µM in data set [4] (setting [15]). The values for the concentration at 30 min in data set [4] (setting [16]) and in data set [4] (setting [17]) were 43.5 ± 1.8 µM and 5.1 ± 0.2 µM, respectively. Moreover, in data set [4] (rat CV/R assay), the “unbound plasma concentration just prior to death” value stood at 20.2 µM. In addition, in data set [4] (30 mg/kg, 20–21 min), the “Total [plasma]” value is 171.2 ± 10.2a μM. For the same compound, in data set [4] (30 mg/kg, 20–21 min), the “Unbound [plasma]” value was determined as 20.2 ± 1.2a μM.

Usually IC50 stands for the midpoint of a concentration-inhibition curve. The term inhibition denotes the relative decrease from the control value, in per cent. By efflux ratio is commonly meant the permeability from basolateral to apical divided by that in the opposite direction, in the common usage.
